For experiment [1], the system named is Aspergillus fumigatus. Briefly: Inhibition of DHPS in Aspergillus fumigatus assessed as antifungal activity by measuring inhibition zone at 5 mg/mL incubated for 48 hrs by disk diffusion method. Background: Agar diffusion results depend on both activity and mobility in agar.
Experiment [2] deals with Syncephalastrum racemosum. Briefly: Inhibition of DHPS in Syncephalastrum racemosum assessed as antifungal activity by measuring inhibition zone at 5 mg/mL incubated for 48 hrs by disk diffusion method.
The subject of experiment [3] is Geotrichum candidum. The experiment in a line: Inhibition of DHPS in Geotrichum candidum assessed as antifungal activity by measuring inhibition zone at 5 mg/mL incubated for 48 hrs by disk diffusion method.
In experiment [4] the test system is Aspergillus fumigatus. The experiment in a line: Inhibition of DHPS in Aspergillus fumigatus assessed as antifungal activity by measuring inhibition of fungal growth incubated for 48 hrs by microbroth dilution method.
In experiment [5] the test system is Syncephalastrum racemosum. Briefly: Inhibition of DHPS in Syncephalastrum racemosum assessed as antifungal activity by measuring inhibition of fungal growth incubated for 48 hrs by microbroth dilution method. Background: Dilution methods test growth across graded concentrations, often in twofold steps.
Experiment [6] deals with Geotrichum candidum. The experiment in a line: Inhibition of DHPS in Geotrichum candidum assessed as antifungal activity by measuring inhibition of fungal growth incubated for 48 hrs by microbroth dilution method.
The subject of experiment [7] is Streptococcus pneumoniae. The experiment in a line: Inhibition of DHPS in Streptococcus pneumoniae assessed as antibacterial activity by measuring inhibition zone at 5 mg/mL incubated for 24 hrs by disk diffusion method.
Experiment [8] concerns Bacillus subtilis. The experiment in a line: Inhibition of DHPS in Bacillus subtilis assessed as antibacterial activity by measuring inhibition zone at 5 mg/mL incubated for 24 hrs by disk diffusion method.
Experiment [9] relates to Staphylococcus epidermidis. Briefly: Inhibition of DHPS in Staphylococcus epidermidis assessed as antibacterial activity by measuring inhibition zone at 5 mg/mL incubated for 24 hrs by disk diffusion method.
The test system of experiment [10] is Escherichia coli. The experiment in a line: Inhibition of DHPS in Escherichia coli assessed as antibacterial activity by measuring inhibition zone at 5 mg/mL incubated for 24 hrs by disk diffusion method.
The subject of experiment [11] is Proteus vulgaris. Briefly: Inhibition of DHPS in Proteus vulgaris assessed as antibacterial activity by measuring inhibition zone at 5 mg/mL incubated for 24 hrs by disk diffusion method.
Experiment [12] has as its system Klebsiella pneumoniae. The experiment in a line: Inhibition of DHPS in Klebsiella pneumoniae assessed as antibacterial activity by measuring inhibition zone at 5 mg/mL incubated for 24 hrs by disk diffusion method.
Experiment [13] concerns Staphylococcus epidermidis. The experiment in a line: Inhibition of DHPS in Staphylococcus epidermidis assessed as antibacterial activity by measuring inhibition of bacterial growth incubated for 24 hrs by microbroth dilution method.
In experiment [14] the test system is Escherichia coli ATCC 25922. Briefly: Inhibition of DHPS in Escherichia coli ATCC 25922 assessed as inhibition of bacterial growth incubated for 24 hrs in presence of folate precursor, pABA by microbroth dilution method.
For experiment [15], the system named is Escherichia coli ATCC 25922. Briefly: Inhibition of DHPS in Escherichia coli ATCC 25922 assessed as inhibition of bacterial growth incubated for 24 hrs in presence of folate dependent metabolite, methionine by microbroth dilution method.
Experiment [16] has as its system Klebsiella pneumoniae. The experiment in a line: Inhibition of DHPS in Klebsiella pneumoniae assessed as antibacterial activity by measuring inhibition of bacterial growth incubated for 24 hrs by microbroth dilution method.
The subject of experiment [17] is Streptococcus pneumoniae. The experiment in a line: Inhibition of DHPS in Streptococcus pneumoniae assessed as antibacterial activity by measuring inhibition of bacterial growth incubated for 24 hrs by microbroth dilution method.
The test system of experiment [18] is Bacillus subtilis. Briefly: Inhibition of DHPS in Bacillus subtilis assessed as antibacterial activity by measuring inhibition of bacterial growth incubated for 24 hrs by microbroth dilution method.
Experiment [19] deals with Escherichia coli. Briefly: Inhibition of DHPS in Escherichia coli assessed as antibacterial activity by measuring inhibition of bacterial growth incubated for 24 hrs by microbroth dilution method.

Each structure is given as a SMILES string. In brackets after ≈: the same amount, converted by molar mass. Activity calls are given as the source filed them. The rule behind the calls is not given here.

These results are taken from ChEMBL document CHEMBL4627352, “New acrylamide-sulfisoxazole conjugates as dihydropteroate synthase inhibitors” (Bioorg Med Chem, 2020).

Regarding `C[C@@H]1[C@H](O)[C@@H](C)/C=C/C=C/C=C/C=C/C=C/C=C/C=C/[C@H](O[C@@H]2O[C@H](C)[C@@H](O)[C@H](N)[C@@H]2O)C[C@@H]2O[C@](O)(C[C@@H](O)C[C@@H](O)[C@H](O)CC[C@@H](O)C[C@@H](O)CC(=O)O[C@H]1C)C[C@H](O)[C@H]2C(=O)O`, the inhibition zone (IZ) in experiment [1] worked out at 23.7 mm; in experiment [2] it was 19.7 mm; in [3] it was 28.7 mm. Besides, the MIC in experiment [4] is 0.12 µg/mL (≈ 0.13 µM); in experiment [5] it was 7.81 µg/mL (≈ 8.45 µM); in experiment [6], 0.007 µg/mL (≈ 0.00758 µM).
As to `Cc1noc(NS(=O)(=O)c2ccc(NC(=O)c3c(N)n[nH]c3Nc3ccccc3)cc2)c1C`, the “inhibition zone (IZ)” value in experiment [7], in experiment [10], in experiment [11], in [12], in experiment [1] and in [2] was “inactive” each time. Further, the “inhibition zone (IZ)” value in [3] is “inactive”. In addition, the figures for the inhibition zone (IZ) in [8] and in [9] were 12.6 mm and 13.4 mm, respectively. The MIC in experiment [13] was 15.6 µg/mL (≈ 33.4 µM). For the same molecule, the inhibition result in [14] and in [15] was “inactive” throughout.
`CC(=O)OC[C@H]1O[C@@H](S/C(Nc2ccccc2)=C(\C#N)C(=O)Nc2ccc(S(=O)(=O)Nc3onc(C)c3C)cc2)[C@H](OC(C)=O)[C@@H](OC(C)=O)[C@@H]1OC(C)=O`: the inhibition zone (IZ) in experiment [7] was determined as 10.6 mm; in experiment [8], 12.4 mm; in experiment [9] it was 18.9 mm; in experiment [10], 10.6 mm; in [11], 8.3 mm; in experiment [12] it was 14.2 mm. The MIC amounted to 15.6 µg/mL (≈ 19.5 µM) in experiment [13] and 62.5 µg/mL (≈ 78.1 µM) in experiment [16]. Besides, the “inhibition zone (IZ)” value in [1], in experiment [2] and in experiment [3] was “inactive” in each case. The inhibition entry in experiment [14] and in experiment [15] was “inactive” each time.
For the molecule `CCS/C(Nc1ccccc1)=C(\C#N)C(=O)Nc1ccc(S(=O)(=O)Nc2onc(C)c2C)cc1`, the “inhibition zone (IZ)” value in experiment [7], in experiment [10], in [11], in experiment [12], in experiment [1] and in [2] was “inactive” in each case. The “inhibition zone (IZ)” value in [3] was “inactive”. The results for the inhibition zone (IZ) in experiment [8] and in experiment [9] were 11.2 mm and 10.1 mm, respectively. The inhibition entry in experiment [14] and in experiment [15] was “inactive” in each case.
For `CC(=O)OC[C@H]1O[C@@H](S/C(Nc2ccccc2)=C(\C#N)C(=O)Nc2ccc(S(=O)(=O)Nc3onc(C)c3C)cc2)[C@H](OC(C)=O)[C@@H](OC(C)=O)[C@H]1OC(C)=O`, the inhibition zone (IZ) is 15.1 mm in experiment [7]; 19.8 mm in [8]; 14.2 mm in [9]; 13.2 mm in [10]; 11.2 mm in experiment [11]; 15.8 mm in [12]. Further, the MIC in experiment [17] was 62.5 µg/mL (≈ 78.1 µM); in [18] it was 1.95 µg/mL (≈ 2.44 µM); in experiment [13], 125 µg/mL (≈ 156 µM); in [19] it was 125 µg/mL (≈ 156 µM); in experiment [16], 62.5 µg/mL (≈ 78.1 µM). For the same molecule, the “inhibition zone (IZ)” value in experiment [1], in experiment [2] and in experiment [3] was “inactive” in each case. Moreover, the inhibition entry in experiment [14] and in experiment [15] was “inactive” in each case.
Consider `CS/C(Nc1ccccc1)=C(\C#N)C(=O)Nc1ccc(S(=O)(=O)Nc2onc(C)c2C)cc1`, for which the “inhibition zone (IZ)” value in experiment [7], in experiment [8], in experiment [9], in experiment [10], in experiment [11] and in experiment [12] was “inactive” each time. Moreover, the “inhibition zone (IZ)” value in experiment [1], in experiment [2] and in experiment [3] was “inactive” each time. Moreover, the inhibition entry in [14] and in experiment [15] was “inactive” in each case.
As to `Cc1noc(NS(=O)(=O)c2ccc(NC(=O)/C(C#N)=C(/S)NC34CC5CC(CC(C5)C3)C4)cc2)c1C`, the inhibition zone (IZ) in experiment [7] amounted to 16.9 mm; in experiment [8], 17.4 mm; in experiment [9] it was 16.2 mm; in experiment [10], 13.3 mm; in [11], 11.7 mm; in experiment [12], 16.2 mm. The inhibition zone (IZ) in [1] stood at 14.9 mm; in experiment [2], 13.6 mm; in experiment [3] it was 14.7 mm. The MIC in experiment [17] was 31.2 µg/mL (≈ 59.2 µM); in experiment [18], 31.2 µg/mL (≈ 59.2 µM); in experiment [13], 62.5 µg/mL (≈ 118 µM); in experiment [19], 62.5 µg/mL (≈ 118 µM); in experiment [16], 62.5 µg/mL (≈ 118 µM); in experiment [4] it was 62.5 µg/mL (≈ 118 µM). In addition, the MIC in experiment [6] was found to be 125 µg/mL (≈ 237 µM). For the same molecule, the inhibition entry in [14] and in experiment [15] was “inactive” in each case.
With `CC1(C)S[C@@H]2[C@H](NC(=O)[C@H](N)c3ccccc3)C(=O)N2[C@H]1C(=O)O`, the inhibition zone (IZ) in experiment [7] is 23.8 mm; in [8], 32.4 mm; in [9], 25.4 mm. For the same molecule, the MIC amounted to 0.12 µg/mL (≈ 0.343 µM) in experiment [17], 0.24 µg/mL (≈ 0.687 µM) in [18] and 0.06 µg/mL (≈ 0.172 µM) in experiment [13].
Turning to `CN/C(SC)=C(/C#N)C(=O)Nc1ccc(S(=O)(=O)Nc2onc(C)c2C)cc1`, the “inhibition zone (IZ)” value in experiment [7], in experiment [8], in experiment [9], in experiment [10], in [11] and in [12] was “inactive” each time. Also, the “inhibition zone (IZ)” value in experiment [1], in experiment [2] and in experiment [3] was “inactive” in each case. In addition, the inhibition entry in experiment [14] and in [15] was “inactive” each time.
For `CCS/C(NC12CC3CC(CC(C3)C1)C2)=C(\C#N)C(=O)Nc1ccc(S(=O)(=O)Nc2onc(C)c2C)cc1`, the “inhibition zone (IZ)” value in experiment [7], in experiment [8], in experiment [9], in experiment [10], in experiment [11] and in experiment [12] was “inactive” throughout. In addition, the “inhibition zone (IZ)” value in [1], in experiment [2] and in experiment [3] was “inactive” in each case. Further, the inhibition result in experiment [14] and in experiment [15] was “inactive” in each case.
`Cc1noc(NS(=O)(=O)c2ccc(N)cc2)c1C`: the inhibition zone (IZ) is 19.6 mm in experiment [7]; 20.8 mm in [8]; 17.5 mm in [9]; 15.2 mm in [10]; 18.2 mm in [12]; 15.1 mm in experiment [1]. In addition, the inhibition zone (IZ) in experiment [2] is 13.2 mm; in [3], 16.8 mm. For the same molecule, the “inhibition zone (IZ)” value in [11] was “inactive”. In addition, the MIC in experiment [17] turned out to be 1.95 µg/mL (≈ 7.29 µM); in experiment [18] it was 0.98 µg/mL (≈ 3.67 µM); in experiment [13], 7.81 µg/mL (≈ 29.2 µM); in [19], 62.5 µg/mL (≈ 234 µM); in experiment [16] it was 7.81 µg/mL (≈ 29.2 µM); in [4] it was 62.5 µg/mL (≈ 234 µM). Besides, the MIC in [5] was 125 µg/mL (≈ 468 µM); in [6], 15.6 µg/mL (≈ 58.5 µM).
Turning to `C=CCN/C(SC)=C(/C#N)C(=O)Nc1ccc(S(=O)(=O)Nc2onc(C)c2C)cc1`, the “inhibition zone (IZ)” value in [7], in experiment [8], in [9], in experiment [10], in [11] and in experiment [12] was “inactive” throughout. Further, the inhibition zone (IZ) in experiment [1] came to 12.6 mm; in experiment [2] it was 15.7 mm; in [3], 18.2 mm. Moreover, the MIC in experiment [5] was 62.5 µg/mL (≈ 140 µM); in [6], 15.6 µg/mL (≈ 34.9 µM). For the same molecule, the inhibition result in experiment [14] and in experiment [15] was “inactive” in each case.
